Tests used:
Gal4DBD/AaEcR (DEF) = molecular target: T1, Gal4DBD/AaEcR (DEF) (Aedes aegypti, UniProt P49880); assay: cell-based; type: cell-based; settings: 33 μM; 3T3 cells; 48 h; average of two wells
T1 construct: The wildtype D, E, and F domains from mosquito Aedes aegypti EcR; expressed in transfected cells; host or cells: 3T3 cells
Experimental: 3T3 cells were trypsinized and plated at 2.5×10^3 cells/well on a 96-well plate. After incubation for 24 h at 37° C. under 5% CO2, cells were transfected with the Gal4DBD/AaEcR (DEF) gene expression cassette and the reporter plasmid, pFRLuc, containing a 5× GAL4 response element and the firefly luciferase gene in serum free media using Superfect (Qiagen). After transfection for 4 h at 37° C., the cells were treated with ligand in serum media. […] Single dose testing was performed at 33 μM.

[1] = molecular target: T2, Bombyx mori EcR (VP16-BmEcR, CVBE) (Bombyx mori, UniProt P49881); assay: Z3 assay (HEK-293 clone Z3 with CVBE and 6x EcRE LacZ, β-galactosidase reporter); type: cell-based; settings: 48 h, average of two wells
T2 construct: expressed in transfected cells
T2 sequence (P49881 86-606): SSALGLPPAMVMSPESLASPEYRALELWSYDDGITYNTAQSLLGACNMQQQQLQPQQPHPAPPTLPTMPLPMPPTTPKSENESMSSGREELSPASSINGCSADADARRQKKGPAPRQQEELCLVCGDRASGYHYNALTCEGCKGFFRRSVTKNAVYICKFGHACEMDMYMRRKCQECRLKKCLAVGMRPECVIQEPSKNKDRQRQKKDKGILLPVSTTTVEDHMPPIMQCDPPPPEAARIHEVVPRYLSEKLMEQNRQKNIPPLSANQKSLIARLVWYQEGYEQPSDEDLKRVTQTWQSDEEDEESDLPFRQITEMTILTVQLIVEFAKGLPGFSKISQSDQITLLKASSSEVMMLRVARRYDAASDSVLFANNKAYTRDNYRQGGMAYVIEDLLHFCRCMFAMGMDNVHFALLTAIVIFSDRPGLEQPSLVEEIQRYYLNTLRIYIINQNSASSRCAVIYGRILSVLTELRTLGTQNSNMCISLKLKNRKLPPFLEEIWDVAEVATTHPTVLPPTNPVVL
Description: Dr. F. Gage provided a population of stably transformed cells containing CVBE and 6× EcRE as described in (Suhr et. al. 1998). Human 293 kidney cells, also referred to as HEK-293 cells, were sequentially infected with retroviral vectors encoding first the switch construct CVBE, and subsequently the reporter construct 6× EcRE Lac Z. The switch construct contained the coding sequence for amino acids 26-546 from Bombyx nori EcR (BE) (Iatrou) inserted in frame and downstream of the VP16 transactivation domain (VBE). A synthetic ATG start codon was placed under the control of cytomegalovirus (CVBE) immediate early promoter and flanked by long terminal repeats (LTR). The reporter-construct contained six copies of the ecdysone response element (EcRE) binding site placed upstream of LacZ and flanked on both sides with LTR sequences (6× EcRE).
Dilution cloning was used to isolate individual clones. Clones were selected using 450 μg/ml G418 and 100 ng/ml puromycin. Individual clones were evaluated based on their response in the presence and absence of test ligands.
Human 293 kidney cells stably transformed with CVBE and 6× EcRE lack were maintained in Minimum Essential Medium (Mediates, 10-010-CV) containing 10%.FBS (Life Technologies, 26140-087),[…] G418 (Mediates, 30-234-CR), and […] (Sigma, P-7255), at 37° C. in an atmosphere containing 5% CO2 and were subculture when they reached 75% confluence.
Z3 cells were seeded into 96-well tissue culture plates at a concentration of 2.5×10^3 cells per well and incubated at 37° C. in 5% CO2 for twenty-four hours. Stock solutions of ligands were prepared in DMSO. Ligand stock solutions were diluted 100.fold in media and 50 μL of this diluted ligand solution (33 μM) was added to cells.
Reporter gene expression was evaluated 48 hours after treatment of cells, β-galactosidase activity was measured using Gal Screen™ bioluminescent reporter gene assay system from Tropix (GSY1000).
Flanking both constructs are long terminal repeats, G418 and puromycin are selectable markers, CMV is the cytomegalovirus promoter, VBE is coding sequence for amino acids 26-546 from Bombyx mori EcR inserted downstream of the VP16 transactivation domain, 6× EcRE is six copies of the ecdysone response element, lacZ encodes for the reporter enzyme β-galactosidase.

T1 sequence (P28704 286-520 A311G/G315S/G445S/I449V): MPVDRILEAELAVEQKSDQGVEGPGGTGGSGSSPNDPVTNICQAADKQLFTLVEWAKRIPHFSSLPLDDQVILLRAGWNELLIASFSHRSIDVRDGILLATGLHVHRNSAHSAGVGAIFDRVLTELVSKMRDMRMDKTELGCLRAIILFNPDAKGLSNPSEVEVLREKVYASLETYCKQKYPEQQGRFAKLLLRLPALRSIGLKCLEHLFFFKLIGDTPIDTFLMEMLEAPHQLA
T1 sequence (P49880 405-776): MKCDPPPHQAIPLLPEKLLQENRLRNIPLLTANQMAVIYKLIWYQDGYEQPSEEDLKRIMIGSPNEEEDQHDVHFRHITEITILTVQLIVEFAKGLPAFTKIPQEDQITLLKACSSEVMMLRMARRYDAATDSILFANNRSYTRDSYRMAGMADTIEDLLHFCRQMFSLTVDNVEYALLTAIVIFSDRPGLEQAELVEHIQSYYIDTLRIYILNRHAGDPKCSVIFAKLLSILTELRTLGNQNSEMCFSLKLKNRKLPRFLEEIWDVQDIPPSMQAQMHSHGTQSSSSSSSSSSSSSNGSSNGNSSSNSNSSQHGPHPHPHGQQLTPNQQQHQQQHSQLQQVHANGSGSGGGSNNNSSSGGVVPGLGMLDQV

Compound | Fold Induction Average, AA_3T3V1 Assay 33 μM (Gal4DBD/AaEcR (DEF)) [fold] | Fold Induction Average, Z3V1 Assay 33 μM [1] [fold]
Cc1ccc(C(=O)N2c3ccccc3C(Nc3ccc(F)cc3)CC2C)cc1 (mixture of isomers) [Compound I-40] | 81 | 24
Cc1ccc(C(=O)N2c3ccccc3C(Nc3cccc(Cl)c3)CC2C)cc1 (mixture of isomers) [Compound I-42] | 80 | 1
Cc1ccc(C(=O)N2c3ccccc3C(Nc3ccc(Cl)cc3)CC2C)cc1 (mixture of isomers) [Compound I-43] | 114 | 3
Cc1ccc(NC2CC(C)N(C(=O)c3ccc(C)cc3)c3ccccc32)cc1 (mixture of isomers) [Compound I-45] | 67 | 3
COc1ccc(NC2CC(C)N(C(=O)c3ccc(C)cc3)c3ccccc32)cc1 (mixture of isomers) [Compound I-47] | 81 | 2
CCCCCCC(=O)N1c2ccccc2[C@@H](Nc2ccccc2)C[C@@H]1C (relative stereo) [Compound I-1] |  | 10
C[C@H]1C[C@@H](Nc2ccc(F)cc2)c2cc(F)ccc2N1C(=O)c1ccc(F)c(C(F)(F)F)c1 (relative stereo) [Compound I-4] | 4 | 1
Cc1ccc(C(=O)N2c3ccccc3[C@H](Nc3ccccc3)C[C@@H]2C)cc1F (relative stereo) [Compound I-19] | 70 | 1
Cc1ccc(N[C@H]2C[C@H](C)N(C(=O)c3ccc(F)c(F)c3)c3ccc(C)cc32)cc1 (relative stereo) [Compound I-21] | 52 | 1
Cc1ccc(N[C@H]2C[C@H](C)N(C(=O)c3ccc(C(F)(F)F)c(F)c3)c3ccc(C)cc32)cc1 (relative stereo) [Compound I-23] | 87 | 1
CCCC(=O)N1c2ccccc2C(N(C(=O)c2cccc(OC)c2)c2ccccc2)CC1C (stereo not drawn) [Compound I-160] |  | 1
CC1CC(Nc2ccccc2)c2ccccc2N1C(=O)Cc1cccc2ccccc12 (stereo not drawn) [Compound I-169] |  | 1
COc1cccc(C(=O)N2c3ccc(F)cc3C(Nc3ccc(F)cc3)CC2C)c1 (stereo not drawn) [Compound I-208] | 989 | 
CC1CC(Nc2ccc(F)cc2)c2cc(F)ccc2N1C(=O)c1cccc(C(F)(F)F)c1 (stereo not drawn) [Compound I-209] | 384 | 
CC1CC(Nc2ccccc2)c2ccccc2N1C(=O)Nc1ccccc1 (stereo not drawn) [Compound I-211] | 638 | 
CC1CC(Nc2ccccc2)c2ccccc2N1C(=O)Nc1ccc(Cl)cc1 (stereo not drawn) [Compound I-212] | 367 | 
CC1CC(Nc2ccccc2)c2ccccc2N1C(=O)Nc1cccc(Cl)c1 (stereo not drawn) [Compound I-213] | 527 | 
Cc1cccc(NC(=O)N2c3ccccc3C(Nc3ccccc3)CC2C)c1 (stereo not drawn) [Compound I-215] | 1052 | 
Cc1ccc(NC2CC(C)N(C(=O)Nc3ccccc3)c3ccc(C)cc32)cc1 (stereo not drawn) [Compound I-216] | 2 | 
Cc1ccc(NC2CC(C)N(C(=O)Nc3ccc(Cl)cc3)c3ccc(C)cc32)cc1 (stereo not drawn) [Compound I-217] | 8 | 
trans-2-methyl-6-fluoro-1-(3-fluoro-4-methylbenzoyl)-4-(4-methylphenylamino), 4-(3-fluoro-4-methylbenzoyl)-1,2,3,4-tetrahydroquinoline [Compound I-196] | 1 | 

From patent publication US20050228016A1, “TETRAHYDROQUINOLINES FOR MODULATING THE EXPRESSION OF EXOGENOUS GENES VIA AN ECDYSONE RECEPTOR COMPLEX” (priority 2002, published 2005)
